This is an account of results in paper PMC7503981, “Plant Nitrilase Homologues in Fungi: Phylogenetic and Functional Analysis with Focus on Nitrilases in Trametes versicolor and Agaricus bisporus” (Molecules, 2020).

One experiment addresses T1, NitTv1 (Trametes versicolor, UniProt P9WEU6).
T1 construct: gene nit; catalytic tetrad E46, K133, E140, C178
Description: spectrophotometric ammonia assay; […] substrate. The class given is biochemical. As to conditions: read-out: Substrate β-CA / Vmax [U mg^-1 rotein)] KM (mM) / NLase Activity ^2; NLase (Asp + ammonia forming) activity; no asparaginase added for NLase activity; 50 mM Tris/HCl, 150 mM NaCl, pH 8.0, 30 °C.

A further experiment concerns T2, NitAb.
T2 construct: catalytic tetrad E45, K157, E164, C195
The experiment is described as follows: spectrophotometric ammonia assay; […] substrate. It counts as biochemical, Agaricus bisporus. The conditions noted are these: NLase (Asp + ammonia forming) activity; no asparaginase added for NLase activity; 50 mM Tris/HCl, 150 mM NaCl, pH 8.0, 30 °C; read-out: Substrate β-CA / Vmax [U mg^-1 rotein)] KM (mM) / NLase Activity ^2.

Molecules are shown by their SMILES.

T1 sequence (P9WEU6 whole entry): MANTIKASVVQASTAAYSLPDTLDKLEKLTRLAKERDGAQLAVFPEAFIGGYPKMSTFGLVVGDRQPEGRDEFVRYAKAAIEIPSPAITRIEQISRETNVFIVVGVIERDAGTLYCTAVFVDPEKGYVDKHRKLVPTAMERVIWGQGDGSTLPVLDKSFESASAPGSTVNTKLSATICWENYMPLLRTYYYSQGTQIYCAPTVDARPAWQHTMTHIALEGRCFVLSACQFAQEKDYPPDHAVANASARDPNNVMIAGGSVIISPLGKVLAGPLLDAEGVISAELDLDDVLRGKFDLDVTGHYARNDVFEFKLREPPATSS

As for `N#CC[C@H](N)C(=O)O` [β-CA, β-cyano-L-alanine], the Km at NitTv1 is 7.72 ± 1.82 mM; in the experiment with NitAb it was 7.38 ± 1.4 mM.
